In ChEMBL document CHEMBL1201862, “PubChem BioAssay data set” (2004):
The source made the active and inactive calls.

Key:
[1] = Luminescence Cell-Based Dose Response HTS to Identify Inhibitors of 5'UTR Stem-Loop Driven Prion Protein mRNA Translation in H4 Neuroglioblastoma Cells. [Related pubchem assays: 1827 (Project Summary), 1813 (Primary HTS)]; assay type: functional
[2] = alpha-synuclein stem-loop luciferase translation blockers – H4 neuroglioma cells, luminescence, confirmation (AID 1988); assay type: functional, cell-based
[3] = target: Cytochrome P450 2D6 (Homo sapiens, UniProt P10635);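 also: CYP2D6 member of a cytochrome P450 panel assay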
Cytochrome P450 2D6, sequence (P10635 whole entry): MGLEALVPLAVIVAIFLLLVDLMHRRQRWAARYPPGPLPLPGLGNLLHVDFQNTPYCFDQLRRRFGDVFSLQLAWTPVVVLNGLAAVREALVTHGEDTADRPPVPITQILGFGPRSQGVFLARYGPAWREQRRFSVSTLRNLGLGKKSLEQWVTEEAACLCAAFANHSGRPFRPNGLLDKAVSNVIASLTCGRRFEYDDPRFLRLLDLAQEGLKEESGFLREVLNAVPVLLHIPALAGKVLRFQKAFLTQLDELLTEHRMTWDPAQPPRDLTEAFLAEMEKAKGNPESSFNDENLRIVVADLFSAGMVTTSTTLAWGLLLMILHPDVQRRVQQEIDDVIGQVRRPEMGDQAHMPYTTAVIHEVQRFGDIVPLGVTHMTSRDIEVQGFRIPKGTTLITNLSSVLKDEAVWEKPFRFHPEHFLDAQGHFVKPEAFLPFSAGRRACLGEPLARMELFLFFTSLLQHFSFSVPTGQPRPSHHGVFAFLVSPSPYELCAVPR

[4] = target: T1, Eukaryotic translation initiation factor 2-alpha kinase 3 (Homo sapiens, UniProt Q9NZJ5); experiment: Counterscreen assay for PERK inhibitors: Dose response cell-based high throughput screening assay to measure inhibition of PERK at 6 hours. [Related pubchem assays: 1522, 1416 ]; assay type: functional
T1 sequence (Q9NZJ5 whole entry): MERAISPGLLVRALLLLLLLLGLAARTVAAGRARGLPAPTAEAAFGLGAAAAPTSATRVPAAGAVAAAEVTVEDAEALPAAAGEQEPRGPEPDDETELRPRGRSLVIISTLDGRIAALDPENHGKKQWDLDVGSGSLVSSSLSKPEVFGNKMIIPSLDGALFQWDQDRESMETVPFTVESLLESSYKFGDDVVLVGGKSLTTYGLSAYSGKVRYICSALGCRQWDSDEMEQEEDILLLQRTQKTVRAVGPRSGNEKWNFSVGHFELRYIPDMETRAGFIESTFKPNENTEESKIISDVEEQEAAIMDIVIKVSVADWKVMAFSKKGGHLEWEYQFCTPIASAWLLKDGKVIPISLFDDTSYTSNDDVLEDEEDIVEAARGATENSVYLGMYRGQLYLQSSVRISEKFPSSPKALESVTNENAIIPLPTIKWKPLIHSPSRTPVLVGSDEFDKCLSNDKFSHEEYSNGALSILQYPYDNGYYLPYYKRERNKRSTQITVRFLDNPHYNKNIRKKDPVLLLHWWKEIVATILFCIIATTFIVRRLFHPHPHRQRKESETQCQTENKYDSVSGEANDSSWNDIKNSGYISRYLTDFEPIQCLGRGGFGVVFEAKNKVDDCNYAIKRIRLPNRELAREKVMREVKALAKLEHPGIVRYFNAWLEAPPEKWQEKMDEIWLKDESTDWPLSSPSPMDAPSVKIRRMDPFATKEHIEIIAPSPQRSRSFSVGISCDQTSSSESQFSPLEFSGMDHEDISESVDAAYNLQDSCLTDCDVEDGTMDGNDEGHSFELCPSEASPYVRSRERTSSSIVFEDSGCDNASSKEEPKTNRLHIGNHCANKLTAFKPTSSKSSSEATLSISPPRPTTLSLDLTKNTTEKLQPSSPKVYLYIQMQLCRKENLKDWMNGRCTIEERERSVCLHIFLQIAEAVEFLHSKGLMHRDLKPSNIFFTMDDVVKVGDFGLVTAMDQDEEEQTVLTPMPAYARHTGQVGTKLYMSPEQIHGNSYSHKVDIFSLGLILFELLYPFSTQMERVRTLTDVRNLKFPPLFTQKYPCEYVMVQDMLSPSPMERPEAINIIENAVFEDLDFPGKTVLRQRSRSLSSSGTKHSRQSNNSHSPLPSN

[5] = target: T1, Eukaryotic translation initiation factor 2-alpha kinase 3; experiment: Dose response cell-based high-throughput screening assay to measure PERK inhibition. [Related pubchem assays: 1416 ]; assay type: functional
[6] = luciferase reporter signal suppression in cells – H4 neuroglioma cells, luminescence, dose response (AID 1990); assay type: functional, cell-based
[7] = test system: Vero; experiment: cells; assay type: functional, cell-based; conditions: Chlorocebus sabaeus
[8] = target: T2, Microphthalmia-associated transcription factor (Homo sapiens, UniProt O75030); experiment: reducers of TRPM1 reporter luminescence, concentration series – cell-based, SK-MEL-5, cherry-picked, set 3, MITF inhibitor project, dose response (AID 493073); assay type: functional;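 also: SK-MEL-5 melanoma cells with luciferase driven by the MITF target TRPM1 promoter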
T2 sequence (O75030 whole entry): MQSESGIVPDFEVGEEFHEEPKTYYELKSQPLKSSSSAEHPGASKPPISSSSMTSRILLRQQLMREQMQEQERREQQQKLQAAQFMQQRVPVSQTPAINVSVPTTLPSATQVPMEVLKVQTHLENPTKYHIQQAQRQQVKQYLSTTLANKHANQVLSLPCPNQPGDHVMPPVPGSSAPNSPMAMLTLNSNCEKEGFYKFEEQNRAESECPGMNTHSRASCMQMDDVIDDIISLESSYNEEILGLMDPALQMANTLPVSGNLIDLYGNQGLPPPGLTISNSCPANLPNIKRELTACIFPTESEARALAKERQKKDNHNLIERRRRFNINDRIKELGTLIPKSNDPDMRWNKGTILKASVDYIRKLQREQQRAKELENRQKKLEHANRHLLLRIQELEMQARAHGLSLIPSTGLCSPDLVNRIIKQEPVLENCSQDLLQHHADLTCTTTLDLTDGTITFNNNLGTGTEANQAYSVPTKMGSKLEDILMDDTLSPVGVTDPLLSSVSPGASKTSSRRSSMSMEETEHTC

[9] = viability of HCT116 lacking mutant beta-catenin – cell-based, human colon tumor, dose response (AID 1045); assay type: functional;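 also: HCT116 colon tumor cells with beta catenin knocked out; cells exposed to compound for 60 hours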
[10] = test system: BJ; experiment: cells; assay type: functional, cell-based; conditions: Homo sapiens
[11] = target: T3, Heat shock factor protein 1 (Mus musculus, UniProt P38532); experiment: enhancement of HSF1-driven luciferase signal – cell-based, NIH3T3, luminescence, dose retest, confirmation (AID 435004); assay type: functional;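 also: stress induced by proteasome inhibitor MG132 added 30 min after compound; luciferase reporter driven by HSF1 response element in NIH3T3 cells; actives raise luminescence as potentiators of the MG132 stress response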
T3 sequence (P38532 whole entry): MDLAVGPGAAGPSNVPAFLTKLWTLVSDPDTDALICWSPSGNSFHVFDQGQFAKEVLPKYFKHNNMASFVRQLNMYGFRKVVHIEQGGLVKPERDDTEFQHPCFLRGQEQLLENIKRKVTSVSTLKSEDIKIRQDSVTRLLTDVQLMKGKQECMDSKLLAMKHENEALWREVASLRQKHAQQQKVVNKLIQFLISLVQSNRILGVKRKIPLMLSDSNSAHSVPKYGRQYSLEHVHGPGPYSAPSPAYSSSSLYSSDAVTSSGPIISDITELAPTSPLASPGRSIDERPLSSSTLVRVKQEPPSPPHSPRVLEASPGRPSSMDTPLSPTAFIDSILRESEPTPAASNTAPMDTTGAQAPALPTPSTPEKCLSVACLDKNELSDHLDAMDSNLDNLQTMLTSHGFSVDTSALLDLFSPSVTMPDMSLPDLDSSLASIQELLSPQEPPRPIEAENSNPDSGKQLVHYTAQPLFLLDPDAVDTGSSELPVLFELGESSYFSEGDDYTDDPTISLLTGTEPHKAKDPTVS

[12] = THP-1 cell cytotoxicity, dose response, cytotoxicity control for non-replicating M. tuberculosis project (AID 489025); assay type: functional
[13] = cells; assay type: functional
[14] = DRD fibroblast viability loss – cell-based, non-viral oncogenic, luminescence, dose response (AID 1934); assay type: functional; conditions: Homo sapiens
[15] = test system: BJ; experiment: BJ-TERT-LT-ST fibroblast viability loss – cell-based, RAS-independent, luminescence, dose response (AID 1935); assay type: functional; conditions: Homo sapiens;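 also: BJ fibroblasts immortalized with TERT plus LT and ST oncogenes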
[16] = viability of PTEN-deleted HCT116 cells – cell-based, HCT116 PTEN knockout, dose response (AID 1047); assay type: functional;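 also: HCT116 colon tumor cells with PTEN knocked out; cells exposed to compound for 60 hours before readout; potency for loss of cell viability measured by luminescence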
[17] = target: T4, Caspase-6 (Homo sapiens, UniProt P55212); experiment: inhibition of CASP6 peptide cleavage – biochemical, VEID-R110 fluorescence, cherry-pick, dose response (AID 720632)
T4 sequence (P55212 whole entry): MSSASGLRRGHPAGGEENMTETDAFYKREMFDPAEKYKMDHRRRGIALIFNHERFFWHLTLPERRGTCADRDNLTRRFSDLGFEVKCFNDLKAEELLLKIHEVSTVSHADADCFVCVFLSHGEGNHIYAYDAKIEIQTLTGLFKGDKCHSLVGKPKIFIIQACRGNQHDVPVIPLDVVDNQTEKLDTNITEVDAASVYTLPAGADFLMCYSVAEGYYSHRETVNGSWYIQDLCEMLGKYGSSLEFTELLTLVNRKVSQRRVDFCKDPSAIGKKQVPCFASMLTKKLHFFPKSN

[18] = test system: BJ; experiment: BJ-TERT fibroblast viability loss – cell-based, RAS-independent, luminescence, dose response (AID 1933); assay type: functional; conditions: Homo sapiens
[19] = test system: HEK293; experiment: cells; conditions: Homo sapiens
[20] = Vero E6 cell cytotoxicity, dose response, cytotoxicity control for non-replicating M. tuberculosis project, secondary assay (AID 492998); assay type: functional, VeroE6; conditions: Vero C1008
[21] = test system: HEK293; experiment: cells; conditions: Homo sapiens; remark: listed apart in the source
[22] = target: Cytochrome P450 2C19 (Homo sapiens, UniProt P33261); experiment: Cytochrome panel assay with activity outcomes. Panel member name: p450-cyp2c19 Compounds with AC50 equal or less than 10 uM are considered active; assay type: functional
Cytochrome P450 2C19, sequence (P33261 whole entry): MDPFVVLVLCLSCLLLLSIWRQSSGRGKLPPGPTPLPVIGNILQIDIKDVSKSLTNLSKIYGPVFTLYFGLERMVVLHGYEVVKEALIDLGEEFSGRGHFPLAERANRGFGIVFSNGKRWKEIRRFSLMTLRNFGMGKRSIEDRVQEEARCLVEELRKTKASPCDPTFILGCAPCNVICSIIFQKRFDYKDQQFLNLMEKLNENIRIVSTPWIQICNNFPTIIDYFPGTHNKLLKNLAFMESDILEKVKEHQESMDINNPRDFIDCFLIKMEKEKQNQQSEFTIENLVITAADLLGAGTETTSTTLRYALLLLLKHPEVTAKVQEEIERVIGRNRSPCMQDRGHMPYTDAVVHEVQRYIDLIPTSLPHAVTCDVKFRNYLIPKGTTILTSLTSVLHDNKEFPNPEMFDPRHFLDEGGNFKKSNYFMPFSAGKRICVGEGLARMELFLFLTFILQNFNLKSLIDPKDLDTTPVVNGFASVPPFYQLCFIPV

[23] = target: CAAX prenyl protease 2 (Homo sapiens, UniProt Q9Y256); experiment: inhibition of Ras-converting CAAX protease Rce1 – biochemical, yeast membranes, quenched-peptide fluorescence, cherry-pick, dose response (AID 588849)
CAAX prenyl protease 2, sequence (Q9Y256 whole entry): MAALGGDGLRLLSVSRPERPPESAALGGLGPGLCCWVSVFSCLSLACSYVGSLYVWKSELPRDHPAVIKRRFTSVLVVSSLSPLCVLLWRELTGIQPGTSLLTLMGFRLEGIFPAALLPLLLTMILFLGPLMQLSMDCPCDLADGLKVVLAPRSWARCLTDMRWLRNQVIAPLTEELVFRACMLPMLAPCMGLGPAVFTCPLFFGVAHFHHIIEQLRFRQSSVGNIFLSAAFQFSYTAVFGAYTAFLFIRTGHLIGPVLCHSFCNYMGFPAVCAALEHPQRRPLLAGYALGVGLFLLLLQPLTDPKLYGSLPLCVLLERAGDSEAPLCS

Which EC50 [1] does the source give for `CC(C)n1nnnc1-c1cc(Cl)cc(Cl)c1` here?
The EC50 was 10.2 µM (active).

And the EC50 [2]?
Its EC50 is > 120 µM (not active).

And the AC50 [3]?
Its AC50 is “inconclusive”.

And the EC50 [4]?
The EC50 was > 55.7 µM (not active).

What about the EC50 [5] of the same molecule?
The EC50 was > 55.7 µM (not active).

What about the EC50 [6] of the same molecule?
Its EC50 is > 120 µM (not active).

For `O=C1c2cc([N+](=O)[O-])cc3cc([N+](=O)[O-])cc(c23)C(=O)N1c1ccccn1`, which IC50 [7] is on record?
The IC50 was 16.3 µM (active).

What about the AC50 [8] of the same molecule?
The AC50 was 7.92 µM (active).

What about the EC50 [9] of the same molecule?
The EC50 was 7.76 µM (active).

What about the EC50 [10] of the same molecule?
Its EC50 is 54.8 µM (active).

And the EC50 [11]?
The EC50 was 13.7 µM (active).

And the CC50 [12]?
Its CC50 is 17.5 µM (active).

And the IC50 [13]?
The IC50 was 3.43 µM (active).

What about the EC50 [14] of the same molecule?
The EC50 was 11.2 µM (active).

What about the EC50 [15] of the same molecule?
The EC50 was > 150 µM (inconclusive).

And the EC50 [16]?
The EC50 was 9.92 µM (active).

What about the AC50 [17] of the same molecule?
Its AC50 is 15.3 µM (active).

And the EC50 [18]?
The EC50 was 37.1 µM (active).

What about the EC50 [19] of the same molecule?
Its EC50 is > 59.7 µM (inactive).

What about the CC50 [20] of the same molecule?
The CC50 was 15.2 µM (active).

And the EC50 [21]?
Its EC50 is > 59.7 µM (inactive).

What does the source list for `C[N+](C)(N)CCC[N+](C)(C)N`?
AC50 [3]: inconclusive; AC50 [22]: inconclusive

For `Cc1ccc(CNC(=O)c2cc(-c3ccccc3)nn2CC2CC(c3cccc([N+](=O)[O-])c3)=NO2)cc1` (centres undefined), which AC50 [23] is on record?
Its AC50 is 30 µM (active).
